According to patent publication US10144817B2, “Active and intelligent additive, polymer and article” (Braskem S.A., priority 2010, dated 2018):

Test: Decomposition temperature of sensitive compounds and of the encapsulated additives
Format: physicochemical
Conditions: not encapsulated
Description: The sensitive compounds set forth in Table 1 constitute preferred examples of compounds that may be used in the preparation of the active and intelligent additive according to the present invention. The sensitive compounds release a certain amount of electrons according to the characteristic reaction for each compound.

Row | Compound | Decomposition Temperature of the Sensitive Compound [°C]
1 | O=C1O[C@H]([C@@H](O)CO)C(O)=C1O [Ascorbic Acid] | 190
2 | Citric Acid | 175
